The results in this text go back to US20150056702A1, “METHOD AND KIT FOR CULTURING STEM CELLS” (China Medical University, priority 2013, published 2015).

Assay [1] relates to ES cells. The assay is described as follows: Alkaline phosphatase staining of ES cells. It counts as cell-based, mouse. On the procedure:
The following steps were conducted in order to culture ES cells: • (1) preparing a stem cell medium: DMEM+15% heat-inactivated FBS+NEAA (0.1 mM)+L-glutamine (2 mM)+β-mercaptoethanol (0.2 mM); • (2) preparing a BP-containing solution: dissolving BP into DMSO to form a BP-containing solution (100 mg/ml), and storing the solution at −20° C.; • (3) adding different amounts of the BP-containing solution in step (2) into the stem cell medium in step (1) to form different BP-containing mediums, wherein the amount of BP were about 5, 10, 20 or 40 μg per milliliter of the stem cell medium respectively (i.e. the experimental group mediums: BP5, BP10, BP20 and BP40); and • (4) using the BP-containing medium of in step (3) to culture a ES cell (retrieved from the embryos in the blastula stage of 129sv/J mice) at 37° C., 5% CO2 and 95% humidity on the feeder cells provided by Example 1.
The following procedure was conducted in proper order to culture the ES cells: • (1) preparing a stem cell medium: • LIF-containing medium (without BP): DMEM+15% heat-inactivated FBS+NEAA (0.1 mM)+L-glutamine (2 mM)+(3-mercaptoethanol (0.2 mM)+LIF (4 ng/ml); and • control medium (without BP): DMEM+15% heat-inactivated FBS+NEAA (0.1 mM)+L-glutamine (2 mM)+β-mercaptoethanol (0.2 mM); • (2) using the medium in step (1) to culture a ES cell (retrieved from embryos in the blastula stage of 129sv/J mice) at 37° C., 5% CO2 and 95% humidity on the feeder cells provided by Example 1.
Alkaline phosphatase is a marker protein of stem cells. The activity measured by staining could be used to determine if BP can effectively maintain the self-renewal and/or pluripotency of stem cells.
An experimental group medium (BP5, BP10, BP20 or BP40), a LIF-containing medium (without BP) and a control group medium (without BP) were used respectively to culture ES cells in a 6-well culture dish with an initial density of 1×10^4 per well for 72 hours. The medium was removed and the cells were washed two times with PBS. Next, PBS was removed, and 1 ml of 80% ethanol was added into each well to perform the fixation at 4° C. for 2 to 24 hours. Next, ethanol was removed, and then the cells were washed one time with distilled water. The distilled water was added again to soak the cells for 2 to 3 minutes, and then be removed. Next, the cells were soaked with a Tris-HCl buffer (100 mM, pH 8.2 to 8.5) at room temperature for 5 minutes, and then, the buffer was removed. Next, a Leukocyte Alkaline Phosphatase kit (Vector) was used to perform the staining for 20 to 30 minutes, and then the Alkaline Phosphatase Substrate working solution was removed, the cells were soaked and washed by Tris-HCl buffer (100 mM, pH 8.2 to 8.5) and then be observed by a fluorescent microscope to count the number of the AP-positive clones. The undifferentiated ES cells with a higher activity show a red color, while the differentiated ES cells with a lower activity show a weak red color or are even colorless.

The test system of assay [2] is Jak2. The assay is described as follows: Real-time PCR, Jak2 mRNA in ES cells. Type of assay: cell-based, mouse. The following applies: for Jak2 Gene expression level: ES cells, control group = 100%. The method, then:
An experimental group medium (BP5, BP10, BP20 or BP40) and a control group medium (without BP) were added respectively to perform the following steps. ES cells were cultured with an initial density of 1×10^4 per well in a 6-well culture dish. The medium was removed until the cells growth to be about 70 to 80% confluence, and then 1 ml TRIzol (Invitrogen) was added into each well. The cells were incubated for 5 minutes, and then was scraped by a spatula and placed into a 1.5 ml microtube to be lysed adequately. Chloroform (0.2 ml) was added into the microtubes. The mixture was shaken up and down for 15 seconds, and then incubated at room temperature for 2 to 3 minutes. Thereafter, the mixture was centrifuged at 12000 rpm at 4° C. for 15 minutes, and the supernatant was removed into another 1.5 ml microtube and isopropanol (0.5 ml) was added into the microtube with well mixing. The mixture was incubated at room temperature for 10 minutes and then centrifuged at 12000 rpm at 4° C. for 10 minutes. The supernatant was then removed. One ml of 70% ethanol containing DEPC.H2O was used to wash the remaining sediment. The sediment was centrifuged at 7500 rpm at 4° C. for 5 minutes. The supernatant was removed. The sediment was dried by vacuum suction. The dried samples were dissolved in about 0.01 to 0.02 ml of DEPC.H2O to obtain the experimental group RNA and control group RNA. Both groups were stored at −80° C.
The OD value of RNA samples in both groups obtained from the above Experiment I were measured at a wavelength of 260 nm (RNA: OD260=1 for a 40 μg/mL solution). Each RNA sample (2 μl) was added with RNA-free water until the volume of the sample reached 10 μl. Two μl oligo (dT) (100 μg/ml) was added into each sample, and the samples were incubated at 65° C. for 5 minutes. Then, the samples were immediately placed on ice and spun down. Next, 6.5 μl of a reaction solution [4 μl of 5× buffer+1 μl of 0.1 M DTT+1 μl of RNase out+0.5 μl of SSIII (Invitrogen)] was added into each of the samples, and the samples were incubated at 50° C. for about 30 to 60 minutes and at 75° C. for 15 minutes to obtain the experimental group cDNA and control group cDNA. Both groups were stored at −80° C.
This experiment was used to detect the expression levels of ES cell-related genes, i.e., Oct4 and Sox2, etc. First, 4 μl of the experimental group cDNA or control group cDNA was added into each well of a 96-well micro-reaction plate, and mixed with 6 μl of a reaction solution [0.5 μl of 6 μM forward primer+0.5 μl of 6 μM reverse primer+5 μl of SYBR Green PCR Master mix (Roche)], wherein the SYBR Green PCR Master mix included the reagents needed for Q-PCR, such as dNTPs, MgCl, Taq DNA polymerase and 2×SYBR® Green I solution. […] The cycle threshold (CT) values were measured. […]
In general terms: In qPCR the cycle at which signal appears reflects the starting amount.

“LIF: multifunctional cell factor used to maintain pluripotency of stem cells; LIF-containing medium (4 ng/ml, without BP) as comparison”: the AP-positive clones in assay [1] (LIF-containing medium (LIF 4 ng/ml, without BP), ES cells, 72 hours, control group = 100%) was 110%. The “Jak2 Gene expression level” value in assay [2] (LIF-containing medium (LIF 4 ng/ml, without BP)) is 159%.
Turning to `CCCC=C1OC(=O)c2ccccc21` [BP, n-butylidenephthalide], the AP-positive clones in assay [1] (BP5 medium (about 5 μg BP/ml), ES cells, 72 hours, control group = 100%) was 91%; in assay [1] (BP10 medium (about 10 μg BP/ml), ES cells, 72 hours, control group = 100%), 116%; in assay [1] (BP20 medium (about 20 μg BP/ml), ES cells, 72 hours, control group = 100%), 116%; in assay [1] (BP40 medium (about 40 μg BP/ml), ES cells, 72 hours, control group = 100%) it was 117%; in assay [1] (BP-containing ES cell medium vs control group (without BP), result in words), “more AP-positive clones”. For the same compound, the “Jak2 Gene expression level” value turned out to be 180% in assay [2] (BP5 medium (about 5 μg BP/ml)) and 211% in assay [2] (BP10 medium (about 10 μg BP/ml)). Moreover, the “mRNA expression level of Jak2” value in assay [2] (BP-containing ES cell medium (BP5 or BP10), result in words) is “significantly up-regulated”.
